Data as given in publication PMC11062507.
Values belong to the molecule of their own block, whether it stands above or below them.

Key:
[1] = system: CArah1-1 (DNA, aptamer, circular (5' and 3' ends ligated)) ATCCGATCGAGAGGATCCGGAAACATGCGAATTAATGAGGCCCCAAGATAGCTAAGAGAT; assay: MMC-GO-based binding assay, SYBR Gold fluorescence; conditions: 1x binding buffer (composition not stated); specificity test, concentration not given
[2] = target: T1, Ara h1 (peanut allergen) (peanut, UniProt P43238 85-626); assay: MMC-GO-based fluorescence binding assay; Kd only in figure; 1x binding buffer (composition not in material); aptamer heated 95 C 5 min, ice 15 min, incubated 60 min with target, then MMC-GO 20 min; MST at 25 C; conditions: protein: native; tags: RED-NHS dye label in MST; label: SYBR Gold staining; circular ssDNA
T1 sequence: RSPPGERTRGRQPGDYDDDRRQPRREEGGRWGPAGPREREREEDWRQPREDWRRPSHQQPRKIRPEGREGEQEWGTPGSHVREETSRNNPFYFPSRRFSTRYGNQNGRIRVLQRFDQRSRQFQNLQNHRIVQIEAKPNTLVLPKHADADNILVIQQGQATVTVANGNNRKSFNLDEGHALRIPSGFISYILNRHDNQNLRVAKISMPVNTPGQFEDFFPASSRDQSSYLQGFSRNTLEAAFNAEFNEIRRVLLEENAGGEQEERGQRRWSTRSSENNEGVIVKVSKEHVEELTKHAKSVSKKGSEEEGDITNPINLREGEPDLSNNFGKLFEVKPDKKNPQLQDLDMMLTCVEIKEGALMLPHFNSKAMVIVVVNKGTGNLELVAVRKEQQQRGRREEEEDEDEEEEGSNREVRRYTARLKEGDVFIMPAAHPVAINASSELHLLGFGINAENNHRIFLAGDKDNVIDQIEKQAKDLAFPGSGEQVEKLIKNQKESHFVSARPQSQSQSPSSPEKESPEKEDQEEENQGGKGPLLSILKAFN

[3] = target: T1, Ara h1 (peanut allergen); assay: MST; labeled Ara h1 fixed, aptamer titrated, 25 C; 1x binding buffer (composition not in material); aptamer heated 95 C 5 min, ice 15 min, incubated 60 min with target, then MMC-GO 20 min; MST at 25 C; conditions: protein: native; tags: RED-NHS dye label in MST; label: SYBR Gold staining in MMC-GO assay; circular ssDNA
[4] = target: T1, Ara h1 (peanut allergen); assay: MMC-GO-based fluorescence binding assay; 1x binding buffer (composition not in material); aptamer heated 95 C 5 min, ice 15 min, incubated 60 min with target, then MMC-GO 20 min; MST at 25 C; conditions: protein: native; tags: RED-NHS dye label in MST; label: SYBR Gold staining in MMC-GO assay; circular ssDNA

Molecule: Nc1ncnc2c1ncn2[C@@H]1O[C@H](COP(=O)(O)OP(=O)(O)OP(=O)(O)O)[C@@H](O)[C@H]1O
binding [1]: no

Molecule: N[C@@H](Cc1c[nH]c2ccccc12)C(=O)O
binding [1]: no

Molecule: Cc1cc2nc3c(=O)[nH]c(=O)nc-3n(C[C@H](O)[C@H](O)[C@H](O)CO)c2cc1C
binding [1]: no

B1: CArah1-3 (structured_DNA)
DNA: ATCCGATCGATTCTACGGTTTTTCGCTAACGTTCACTGCACTGTATCTGGGCTAAGAGAT
modifications: circular (5' and 3' ends ligated)
binding result [2]: binds

B2: CArah1-1 (structured_DNA)
DNA: ATCCGATCGAGAGGATCCGGAAACATGCGAATTAATGAGGCCCCAAGATAGCTAAGAGAT
modifications: circular (5' and 3' ends ligated)
Kd [3]: 201 nM | Kd [4]: 981 nM

B3: CArah1-4 (structured_DNA)
DNA: ATCCGATCGATCAACAAACTTCGTGGCTCACCCAGACATTCACTCATGCGGCTAAGAGAT
modifications: circular (5' and 3' ends ligated)
binding result [2]: binds

Other lines, results leading:

binding [1]: no
Molecule: N[C@@H](Cc1ccccc1)C(=O)O

binding [1]: no
Molecule: OC[C@H]1OC(O)[C@H](O)[C@@H](O)[C@@H]1O (stereo partly shown)

binding [1]: no
Molecule: O=C1O[C@H]([C@@H](O)CO)C(O)=C1O
